Here are results for one compound from patent US8187826B2, “Quantitative analysis of in vivo mutation at the Pig-A locus” (Litron Laboratories, Ltd., priority 2008, dated 2012).

Where only a bound is given, the exact number is not on record here.

In data set [1] the test system is reticulocytes. Nature of the data set: frequency of reticulocytes (% RET) in peripheral blood, flow cytometry, rats. Type of data set: in vivo. The following applies: male Wistar rats, FIG. 5A. The source says:
These in vivo experiments utilized naïve rats and focused on the development of simple and reproducible methods for staining and analyzing peripheral blood RBCs and RETs for the GPI anchor-deficient phenotype. As reported elsewhere, it was confirmed that the GPI-anchored protein CD59 is highly and stably expressed on RBCs throughout their lifespan in circulation (Hernández-Campo et al., “Quantitative Analysis of the Expression of Glycosylphosphatidylinositol-Anchored Proteins During the Maturation of Different Hematopoietic Cell Compartments of Normal Bone Marrow,” Cytometry 72B:34-42 (2007), which is hereby incorporated by reference in its entirety). […] A second fluorescent reagent, SYTO® 13 dye, was chosen to differentially stain NCEs, RETs, and leukocytes. […] Secondly, it provided better fluorescent resolution between NCEs, RETs and blood leukocytes. The separation of these latter two populations is particularly important, because not all leukocytes express CD59, and these cells can therefore be mistaken for GPI anchor-deficient RBCs if they are not excluded from analysis. […]
The prior three-color staining strategy outlined above has been described in Bryce et al., “In vivo mutation assay based on the endogenous Pig-a locus”, Environ. […] Samples processed in this manner were evaluated with and without the anti-platelet antibody, and virtually identical values were consistently obtained. […]
For orientation: In flow cytometry, cells or beads pass a laser one at a time.

For data set [2], the system named is GPI anchor-deficient RETs (Pig-A locus). Briefly: Pig-A mutation assay: frequency of mutant phenotype RETs, mice. The conditions noted are these: male CD-1 mice, 40 mg/kg/day oral gavage Days 1-3, FIG. 8C. Type of data set: in vivo. As for the experimental part:
(§1) The cross-species potential of this assay is illustrated by this example, whereby male CD-1 mice were treated on three consecutive days (Day 1, 2 and 3) with N-ethyl-N-nitrosourea (ENU) via oral gavage. The dose levels were 0 or 40 mg/kg/day. Blood harvests occurred on Days 4, 15, 30, 45 and 90 (n=5 per time point per dose). Whereas the rat experiments described in Examples 2-4 above were based on serial blood draws, the mouse experiments were not. Rather, each mouse provided only one blood specimen, thereby requiring like-treated groups of animals to generate the data for each time point studied. This was done to eliminate the possible confounding effect that repeat-blood sampling may have had on the results given the low total blood volume associated with this particular small animal model.

The test system is the same in data set [3]. Nature of the data set: Pig-A mutation assay: frequency of GPI anchor-deficient (mutant phenotype) RETs, rats. The data set is classed as in vivo, Wistar rats. The source says: (§2) These in vivo experiments utilized naïve rats and focused on the development of simple and reproducible methods for staining and analyzing peripheral blood RBCs and RETs for the GPI anchor-deficient phenotype. As reported elsewhere, it was confirmed that the GPI-anchored protein CD59 is highly and stably expressed on RBCs throughout their lifespan in circulation (Hernández-Campo et al., “Quantitative Analysis of the Expression of Glycosylphosphatidylinositol-Anchored Proteins During the Maturation of Different Hematopoietic Cell Compartments of Normal Bone Marrow,” Cytometry 72B:34-42 (2007), which is hereby incorporated by reference in its entirety). […] A second fluorescent reagent, SYTO® 13 dye, was chosen to differentially stain NCEs, RETs, and leukocytes. […] Secondly, it provided better fluorescent resolution between NCEs, RETs and blood leukocytes. The separation of these latter two populations is particularly important, because not all leukocytes express CD59, and these cells can therefore be mistaken for GPI anchor-deficient RBCs if they are not excluded from analysis. Early staining trials also included a third fluorescent reagent, anti-platelet antibody (biotinylated anti-CD61 plus streptavidin-Cy5-PE), which was added to positively identify platelets and prevent platelets from interfering with the RBC-centric analyses.
(§3) The prior three-color staining strategy outlined above has been described in Bryce et al., “In vivo mutation assay based on the endogenous Pig-a locus”, Environ. Molec. Mutagen. 49:256-264 (2008) as well as U.S. Patent Application Publ. […] Samples processed in this manner were evaluated with and without the anti-platelet antibody, and virtually identical values were consistently obtained. […]
(§4) The thresholding technique is based on the fact that the vast majority of Lympholyte® processed blood cells are mature RBCs. […] In this case, it is possible to set the threshold parameter to the nucleic acid dye-associated fluorescence channel (i.e., FL1 for SYTO® 13), as opposed to the more common forward scatter trigger. […]

In data set [4] the test system is GPI anchor-deficient RBCs (Pig-A locus). Nature of the data set: Pig-A mutation assay: frequency of GPI anchor-deficient (mutant phenotype) RBCs, rats. Type of data set: in vivo, Wistar rats.
Excerpt: as §2, §3, §4

For data set [5], the system named is reticulocytes. Nature of the data set: frequency of reticulocytes (% RET) in peripheral blood, flow cytometry, mice. The following applies: male CD-1 mice, 40 mg/kg/day oral gavage Days 1-3, FIG. 8A. Type of data set: in vivo. As for the experimental part:
as §1

The subject of data set [6] is GPI anchor-deficient RBCs (Pig-A locus). Briefly: Pig-A mutation assay: frequency of mutant phenotype RBCs, mice. The conditions noted are these: male CD-1 mice, 40 mg/kg/day oral gavage Days 1-3, FIG. 8B. The data set is classed as in vivo. As for the experimental part:
as §1

`CCN(N=O)C(N)=O` [ENU, N-ethyl-N-nitrosourea]: the “frequency of reticulocytes (% RET)” value is “mean % RET are reduced in a dose-dependent manner” in data set [1] (20 or 40 mg/kg/day oral gavage Days 1-3, vs vehicle control) and “significantly reduced” in data set [5] (Day 4). The “frequency of reticulocytes (% RET), rebound effect” value in data set [1] (high dose group (40 mg/kg/day oral gavage Days 1-3), vs control values) was ““overshoots” the control values”; in data set [5] (Day 15, vs control values), ““overshoots” the control values”. Moreover, the “frequency of mutant phenotype RETs” value is on record as “greatly elevated” in data set [2] (Day 15); “Robust increases in mutant cell frequency” in data set [2] (through Day 90); “very robust, dose-related increase in mutant cells” in data set [3] (male Wistar rats, 1, 5, 10 or 15 mg/kg/day oral gavage on 14 consecutive days, blood Day 23, FIG. 7B). Besides, the “day on which maximal or near-maximal mutant RET frequency is reached” value in data set [3] (male Wistar rats, 20 or 40 mg/kg/day oral gavage Days 1-3, FIG. 5C) amounted to 15 days. Further, in data set [3] (male Wistar rats, 20 or 40 mg/kg/day oral gavage Days 1-3, evident by Day 15, FIG. 5C), the “frequency of mutant phenotype (GPI anchor-deficient) RETs” value is “Robust, dose-related increases in mutant cell frequency”. Also, the “frequency of mutant phenotype RBCs” value is recorded as “very robust, dose-related increase in mutant cells” in data set [4] (male Wistar rats, 1, 5, 10 or 15 mg/kg/day oral gavage on 14 consecutive days, blood Day 23, FIG. 7A) and “increased mutant cell frequencies” in data set [6] (by Day 15). For the same compound, in data set [4] (male Wistar rats, 20 or 40 mg/kg/day oral gavage Days 1-3, Day 15 through Day 90, FIG. 5B), the “frequency of mutant phenotype (GPI anchor-deficient) RBCs” value is given as “Robust, dose-related increases in mutant cell frequency”. The “day on which maximal mutant RBC frequency is reached” value in data set [4] (male Wistar rats, 20 or 40 mg/kg/day oral gavage Days 1-3, plateau thereafter, FIG. 5B) was at most 45 days. Moreover, the “day on which maximum mutant RBC frequency is apparent” value in data set [6] (stable thereafter through Day 90) was found to be 30 days.
